Assay: Stability in human liver microsomes assessed as parent compound remaining at 1 uM incubated for 10 mins
Assay type: ADME, Microsome
Conditions: read-out: Stability

remaining at 10 min, 1 µM	SMILES
93%	COc1c(-c2ccc(C(F)(F)F)cc2Cl)ccc2c1cnn2[C@@H](CC(C)C)c1ccc(C(=O)NCCC(=O)O)cc1

Assay: Stability in mouse liver microsomes assessed as parent compound remaining at 1 uM incubated for 10 mins
Assay type: ADME, Microsome
Conditions: liver microsomes, read-out: Stability

remaining at 10 min, 1 µM	SMILES
87%	COc1c(-c2ccc(C(F)(F)F)cc2Cl)ccc2c1cnn2[C@@H](CC(C)C)c1ccc(C(=O)NCCC(=O)O)cc1

Assay: Stability in rat liver microsomes assessed as parent compound remaining at 1 uM incubated for 10 mins
Assay type: ADME, Microsome
Conditions: read-out: Stability

remaining at 10 min, 1 µM	SMILES
97%	COc1c(-c2ccc(C(F)(F)F)cc2Cl)ccc2c1cnn2[C@@H](CC(C)C)c1ccc(C(=O)NCCC(=O)O)cc1

Assay: Stability in dog liver microsomes assessed as parent compound remaining at 1 uM incubated for 10 mins
Assay type: ADME, Canis lupus familiaris, Microsome
Conditions: liver microsomes, read-out: Stability

remaining at 10 min, 1 µM	SMILES
64%	COc1c(-c2ccc(C(F)(F)F)cc2Cl)ccc2c1cnn2[C@@H](CC(C)C)c1ccc(C(=O)NCCC(=O)O)cc1

— ChEMBL document CHEMBL4396971, “Discovery of potent and orally bioavailable indazole-based glucagon receptor antagonists for the treatment of type 2 diabetes” (Bioorg Med Chem Lett, 2019)
